Measured values: US12077503B2, “Substituted cyclic amides and their use as herbicides” (FMC CORPORATION, priority 2015, dated 2024)

Columns and labels:
Type in all cases: in vivo
corn (Zea mays) = test: Test C preemergence; settings: for Plant response rating, Corn: scale 0 to 100, 0 no effect, 100 complete control
In short: (§1)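 Visual rating, 0–100 scale (0 = no effect, 100 = complete control) versus controls, 13–15 d after treatment. Compounds in non-phytotoxic solvent plus surfactant; applied preemergence to seeds in loam/sand soil or postemergence to 1- to 4-leaf plants (2–18 cm) in peat/vermiculite medium; greenhouse-held.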

[1] = tested on: barnyardgrass (Echinochloa crus-galli); test: Test C preemergence; settings: for Plant response rating, Barnyardgrass: scale 0 to 100, 0 no effect, 100 complete control
In short: as §1

[2] = tested on: waterhemp (common waterhemp, Amaranthus rudis); test: Test C preemergence; settings: for Plant response rating, Waterhemp: scale 0 to 100, 0 no effect, 100 complete control
In short: as §1

[3] = tested on: Galium (catchweed bedstraw, Galium aparine); test: Test C preemergence; settings: for Plant response rating, Galium: scale 0 to 100, 0 no effect, 100 complete control
In short: as §1

[4] = tested on: pigweed (Amaranthus retroflexus); test: Test C preemergence; settings: for Plant response rating, Pigweed: scale 0 to 100, 0 no effect, 100 complete control
In short: as §1

[5] = tested on: lambsquarters (Chenopodium album); test: Test C preemergence; settings: for Plant response rating, Lambsquarters: scale 0 to 100, 0 no effect, 100 complete control
In short: as §1

[6] = tested on: nutsedge, yellow (yellow nutsedge, Cyperus esculentus); test: Test C preemergence; settings: for Plant response rating, Nutsedge, Yellow: scale 0 to 100, 0 no effect, 100 complete control
In short: as §1

[7] = tested on: foxtail, giant (giant foxtail, Setaria faberii); test: Test C preemergence; settings: for Plant response rating, Foxtail, Giant: scale 0 to 100, 0 no effect, 100 complete control
In short: as §1

[8] = tested on: ragweed (common ragweed, Ambrosia elatior); test: Test C preemergence; settings: for Plant response rating, Ragweed: scale 0 to 100, 0 no effect, 100 complete control
In short: as §1

[9] = tested on: ryegrass, Italian (Italian ryegrass, Lolium multiflorum); test: Test C preemergence; settings: for Plant response rating, Ryegrass, Italian: scale 0 to 100, 0 no effect, 100 complete control
In short: as §1

[10] = tested on: crabgrass, large (large crabgrass, Digitaria sanguinalis); test: Test C preemergence; settings: for Plant response rating, Crabgrass, Large: scale 0 to 100, 0 no effect, 100 complete control
In short: as §1

[11] = tested on: blackgrass (Alopecurus myosuroides); test: Test C preemergence; settings: for Plant response rating, Blackgrass: scale 0 to 100, 0 no effect, 100 complete control
In short: as §1

[12] = tested on: johnsongrass (Sorghum halepense); test: Test C preemergence; settings: for Plant response rating, Johnsongrass: scale 0 to 100, 0 no effect, 100 complete control
In short: as §1

[13] = tested on: wheat (winter wheat, Triticum aestivum); test: Test C preemergence; settings: for Plant response rating, Wheat: scale 0 to 100, 0 no effect, 100 complete control
In short: as §1

[14] = tested on: velvetleaf (Abutilon theophrasti); test: Test C preemergence; settings: for Plant response rating, Velvetleaf: scale 0 to 100, 0 no effect, 100 complete control
In short: as §1

[15] = tested on: oilseed rape (Brassica napus); test: Test C preemergence; settings: for Plant response rating, Oilseed Rape: scale 0 to 100, 0 no effect, 100 complete control
In short: as §1

[16] = tested on: morningglory (Ipomoea coccinea); test: Test C preemergence; settings: for Plant response rating, Morningglory: scale 0 to 100, 0 no effect, 100 complete control
In short: as §1

rice (Oryza sativa) = test: Test C flooded paddy test; settings: Flood; for Plant response rating (scale of 0 to 100), Rice: 0 is no effect, 100 is complete control
In short: (§2)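 Test compounds were dosed straight into the flood water of pots holding 2-leaf-stage plants, with water kept 3 cm above the soil. Greenhouse plants were scored visually against controls after 13 to 15 d, from 0 (no effect) to 100 (complete control).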

[17] = tested on: ducksalad (Heteranthera limosa); test: Test C flooded paddy test; settings: Flood; for Plant response rating (scale of 0 to 100), Ducksalad: 0 is no effect, 100 is complete control
In short: as §2

[18] = 31 g ai/ha, 0 is no effect, 100 is complete control
[19] = 31 g ai/ha, scale 0 to 100 (0 no effect, 100 complete control), 13 to 15 d

## O=C1NCC(c2cccc(OC(F)(F)C(F)F)c2)C1C(=O)Nc1ccccc1F (racemic) [Compound 695]
Corn (Zea mays); [18]
  Plant response rating (scale of 0 to 100), Corn: 0
Corn (Zea mays); 62 g ai/ha
  Plant response rating, Corn: 25
Corn (Zea mays); 125 g ai/ha
  Plant response rating, Corn: 70
Corn (Zea mays); 250 g ai/ha
  Plant response rating, Corn: 80
[1]; [18]
  Plant response rating (scale of 0 to 100), Barnyardgrass: 90
[1]; 62 g ai/ha
  Plant response rating, Barnyardgrass: 90
[1]; 125 g ai/ha
  Plant response rating, Barnyardgrass: 90
[1]; 250 g ai/ha
  Plant response rating, Barnyardgrass: 90
[2]; [18]
  Plant response rating (scale of 0 to 100), Waterhemp: 55
[2]; 62 g ai/ha
  Plant response rating, Waterhemp: 75
[2]; 125 g ai/ha
  Plant response rating, Waterhemp: 70
[2]; 250 g ai/ha
  Plant response rating, Waterhemp: 85
[3]; [18]
  Plant response rating (scale of 0 to 100), Galium: 50
[3]; 62 g ai/ha
  Plant response rating, Galium: 80
[3]; 125 g ai/ha
  Plant response rating, Galium: 85
[3]; 250 g ai/ha
  Plant response rating, Galium: 90
[4]; [18]
  Plant response rating (scale of 0 to 100), Pigweed: 50
[4]; 62 g ai/ha
  Plant response rating, Pigweed: 60
[4]; 125 g ai/ha
  Plant response rating, Pigweed: 65
[4]; 250 g ai/ha
  Plant response rating, Pigweed: 70
[5]; [18]
  Plant response rating (scale of 0 to 100), Lambsquarters: 25
[5]; 62 g ai/ha
  Plant response rating, Lambsquarters: 40
[5]; 125 g ai/ha
  Plant response rating, Lambsquarters: 65
[5]; 250 g ai/ha
  Plant response rating, Lambsquarters: 80
[6]; [18]
  Plant response rating (scale of 0 to 100), Nutsedge, Yellow: 0
[6]; 62 g ai/ha
  Plant response rating, Nutsedge, Yellow: 0
[6]; 125 g ai/ha
  Plant response rating, Nutsedge, Yellow: 0
[6]; 250 g ai/ha
  Plant response rating, Nutsedge, Yellow: 0
[7]; [18]
  Plant response rating (scale of 0 to 100), Foxtail, Giant: 80
[7]; 62 g ai/ha
  Plant response rating, Foxtail, Giant: 85
[7]; 125 g ai/ha
  Plant response rating, Foxtail, Giant: 90
[7]; 250 g ai/ha
  Plant response rating, Foxtail, Giant: 90
[8]; [18]
  Plant response rating (scale of 0 to 100), Ragweed: 35
[8]; 62 g ai/ha
  Plant response rating, Ragweed: 70
[8]; 125 g ai/ha
  Plant response rating, Ragweed: 75
[8]; 250 g ai/ha
  Plant response rating, Ragweed: 80
[9]; [18]
  Plant response rating (scale of 0 to 100), Ryegrass, Italian: 0
[9]; 62 g ai/ha
  Plant response rating, Ryegrass, Italian: 60
[9]; 125 g ai/ha
  Plant response rating, Ryegrass, Italian: 30
[9]; 250 g ai/ha
  Plant response rating, Ryegrass, Italian: 30
[10]; [18]
  Plant response rating (scale of 0 to 100), Crabgrass, Large: 90
[10]; 62 g ai/ha
  Plant response rating, Crabgrass, Large: 90
[10]; 125 g ai/ha
  Plant response rating, Crabgrass, Large: 95
[10]; 250 g ai/ha
  Plant response rating, Crabgrass, Large: 95
[11]; [18]
  Plant response rating (scale of 0 to 100), Blackgrass: 0
[11]; 62 g ai/ha
  Plant response rating, Blackgrass: 20
[11]; 125 g ai/ha
  Plant response rating, Blackgrass: 90
[11]; 250 g ai/ha
  Plant response rating, Blackgrass: 90
[12]; [18]
  Plant response rating (scale of 0 to 100), Johnsongrass: 40
[12]; 62 g ai/ha
  Plant response rating, Johnsongrass: 80
[12]; 125 g ai/ha
  Plant response rating, Johnsongrass: 80
[12]; 250 g ai/ha
  Plant response rating, Johnsongrass: 85
[13]; [18]
  Plant response rating (scale of 0 to 100), Wheat: 40
[13]; 62 g ai/ha
  Plant response rating, Wheat: 5
[13]; 125 g ai/ha
  Plant response rating, Wheat: 35
[13]; 250 g ai/ha
  Plant response rating, Wheat: 60
[14]; [18]
  Plant response rating (scale of 0 to 100), Velvetleaf: 0
[14]; 62 g ai/ha
  Plant response rating, Velvetleaf: 10
[14]; 125 g ai/ha
  Plant response rating, Velvetleaf: 30
[14]; 250 g ai/ha
  Plant response rating, Velvetleaf: 55
[15]; [18]
  Plant response rating (scale of 0 to 100), Oilseed Rape: 0
[15]; 62 g ai/ha
  Plant response rating, Oilseed Rape: 40
[15]; 125 g ai/ha
  Plant response rating, Oilseed Rape: 85
[15]; 250 g ai/ha
  Plant response rating, Oilseed Rape: 80
[16]; [18]
  Plant response rating (scale of 0 to 100), Morningglory: 0
[16]; 62 g ai/ha
  Plant response rating, Morningglory: 0
[16]; 125 g ai/ha
  Plant response rating, Morningglory: 5
[16]; 250 g ai/ha
  Plant response rating, Morningglory: 10
Rice (Oryza sativa); [19]
  Plant response rating, Rice: 0
Rice (Oryza sativa); 62 g ai/ha
  Plant response rating (scale of 0 to 100), Rice: 0
Rice (Oryza sativa); 125 g ai/ha
  Plant response rating (scale of 0 to 100), Rice: 15
Rice (Oryza sativa); 250 g ai/ha
  Plant response rating (scale of 0 to 100), Rice: 15
[17]; [19]
  Plant response rating, Ducksalad: 30
[17]; 62 g ai/ha
  Plant response rating (scale of 0 to 100), Ducksalad: 50
[17]; 125 g ai/ha
  Plant response rating (scale of 0 to 100), Ducksalad: 80
[17]; 250 g ai/ha
  Plant response rating (scale of 0 to 100), Ducksalad: 100
